Reference: US20170190671A1, “BIS(ARYL)CATECHOL DERIVATIVES AS HERBICIDES” (E I DU PONT DE NEMOURS AND COMPANY, priority 2014, published 2017)

Legend:
Assay in all cases: Test E preemergence
Type in all cases: in vivo
Details in all cases: scale 0 to 100
[1] = test system: Brazilian crabgrass (Digitaria horizontalis)
From the text: (§1) Seeds of plant species selected from corn (Zea mays), soybean (Glycine max), velvetleaf (Abutilon theophrasti), cocklebur (common cocklebur, Xanthium strumarium), lambsquarters (Chenopodium album), wild poinsettia (Euphorbia heterophylla), palmer pigweed (Amaranthus palmeri), waterhemp (common waterhemp, Amaranthus rudis), surinam grass (Brachiaria decumbens), large (Lg) crabgrass (Digitaria sanguinalis), Brazilian crabgrass (Digitaria horizontalis), fall panicum (Panicum dichotomiflorum), giant foxtail (Setaria faberii), green foxtail (Setaria viridis), goosegrass (Eleusine indica), johnsongrass (Sorghum halepense), ragweed (common ragweed, Ambrosia elatior), barnyardgrass (Echinochloa crus-galli), sandbur (southern sandbur, Cenchrus echinatus), arrowleaf sida (Sida rhombifolia), Italian ryegrass (Lolium multiflorum), dayflower (Virginia (VA) dayflower, Commelina virginica), field bindweed (Convolvulus arvensis), morningglory (Ipomoea coccinea), nightshade (eastern black nightshade, Solanum ptycanthum), kochia (Kochia scoparia), yellow nutsedge (Cyperus esculentus), horseweed (Conyza canadensis), and hairy beggarticks (Bidens pilosa), were planted into a silt loam soil and treated preemergence with test chemicals formulated in a non-phytotoxic solvent mixture which included a surfactant.
(§2) At the same time, plants from these crop and weed species and also waterhemp_RES1, (ALS & Triazine resistant common waterhemp, Amaranthus rudis), and waterhemp_RES2, (ALS & HPPD resistant common waterhemp, Amaranthus rudis) were planted in pots containing Redi-Earth® planting medium (Scotts Company, 14111 Scottslawn Road, Marysville, Ohio 43041) comprising spaghnum peat moss, vermiculite, wetting agent and starter nutrients were treated with postemergence applications of test chemicals formulated in the same manner. Plants ranged in height from 2 to 18 cm for postemergence treatments (1- to 4-leaf stage). Treated plants and controls were maintained in a greenhouse for 14 to 21 days, after which time all species were compared to controls and visually evaluated. Plant response ratings, summarized in Table E, are based on a scale of 0 to 100 where 0 is no effect and 100 is complete control. A dash (-) response means no test result.

[2] = test system: Italian ryegrass (Lolium multiflorum)
From the text: as §1, §2

[3] = test system: Surinam grass (Brachiaria decumbens)
From the text: as §1, §2

[4] = test system: arrowleaf sida (Sida rhombifolia)
From the text: as §1, §2

[5] = test system: barnyardgrass (Echinochloa crus-galli)
From the text: as §1, §2

[6] = test system: fall panicum (Panicum dichotomiflorum)
From the text: as §1, §2

[7] = test system: giant foxtail (Setaria faberii)
From the text: as §1, §2

[8] = test system: goosegrass (Eleusine indica)
From the text: as §1, §2

[9] = test system: green foxtail (Setaria viridis)
From the text: as §1, §2

[10] = test system: hairy beggarticks (Bidens pilosa)
From the text: as §1, §2

[11] = test system: kochia (Kochia scoparia)
From the text: as §1, §2

[12] = test system: lambsquarters (Chenopodium album)
From the text: as §1, §2

[13] = test system: large (Lg) crabgrass (Digitaria sanguinalis)
From the text: as §1, §2

[14] = test system: nightshade (eastern black nightshade, Solanum ptycanthum)
From the text: as §1, §2

[15] = test system: palmer pigweed (Amaranthus palmeri)
From the text: as §1, §2

[16] = test system: ragweed (common ragweed, Ambrosia elatior)
From the text: as §1, §2

[17] = test system: sandbur (southern sandbur, Cenchrus echinatus)
From the text: as §1, §2

[18] = test system: soybean (Glycine max)
From the text: as §1, §2

[19] = test system: velvetleaf (Abutilon theophrasti)
From the text: as §1, §2

[20] = test system: waterhemp (common waterhemp, Amaranthus rudis)
From the text: as §1, §2

[21] = test system: yellow nutsedge (Cyperus esculentus)
From the text: as §1, §2

Fc1cccc(Oc2ncc(Cl)cn2)c1Oc1ncc(Cl)cn1 [Compound 21, 2,2′-[[3-fluoro-1,2-phenylene]bis(oxy)]bis[5-chloropyrimidine]]
65: Plant response rating, Crabgrass, Brazil ([1]; 31 g ai/ha) | Plant response rating, Barnyardgrass ([5]; 62 g ai/ha) | Plant response rating, Soybean ([18]; 62 g ai/ha) | Plant response rating, Waterhemp ([20]; 16 g ai/ha)
100: Plant response rating, Crabgrass, Brazil ([1]; 62 g ai/ha) | Plant response rating, Crabgrass, Brazil ([1]; 125 g ai/ha) | Plant response rating, Arrowleaf Sida ([4]; 31 g ai/ha) | Plant response rating, Arrowleaf Sida ([4]; 62 g ai/ha) | Plant response rating, Arrowleaf Sida ([4]; 125 g ai/ha) | Plant response rating, Barnyardgrass ([5]; 125 g ai/ha) | Plant response rating, Panicum, Fall ([6]; 62 g ai/ha) | Plant response rating, Panicum, Fall ([6]; 125 g ai/ha) | Plant response rating, Foxtail, Giant ([7]; 62 g ai/ha) | Plant response rating, Foxtail, Giant ([7]; 125 g ai/ha) | Plant response rating, Foxtail, Green ([9]; 125 g ai/ha) | Plant response rating, Kochia ([11]; 125 g ai/ha) | Plant response rating, Lambsquarters ([12]; 62 g ai/ha) | Plant response rating, Lambsquarters ([12]; 125 g ai/ha) | Plant response rating, Crabgrass, Large ([13]; 125 g ai/ha) | Plant response rating, Nightshade ([14]; 125 g ai/ha) | Plant response rating, Pigweed, Palmer ([15]; 62 g ai/ha) | Plant response rating, Pigweed, Palmer ([15]; 125 g ai/ha) | Plant response rating, Velvetleaf ([19]; 62 g ai/ha) | Plant response rating, Velvetleaf ([19]; 125 g ai/ha) | Plant response rating, Waterhemp ([20]; 62 g ai/ha) | Plant response rating, Waterhemp ([20]; 125 g ai/ha)
35: Plant response rating, Ryegrass, Italian ([2]; 62 g ai/ha) | Plant response rating, Panicum, Fall ([6]; 16 g ai/ha)
10: Plant response rating, Surinam Grass ([3]; 31 g ai/ha) | Plant response rating, Goosegrass ([8]; 16 g ai/ha)
0: Plant response rating, Crabgrass, Brazil ([1]; 16 g ai/ha) | Plant response rating, Ryegrass, Italian ([2]; 16 g ai/ha) | Plant response rating, Ryegrass, Italian ([2]; 31 g ai/ha) | Plant response rating, Surinam Grass ([3]; 16 g ai/ha) | Plant response rating, Surinam Grass ([3]; 62 g ai/ha) | Plant response rating, Beggarticks ([10]; 16 g ai/ha) | Plant response rating, Beggarticks ([10]; 31 g ai/ha) | Plant response rating, Beggarticks ([10]; 62 g ai/ha) | Plant response rating, Beggarticks ([10]; 125 g ai/ha) | Plant response rating, Lambsquarters ([12]; 16 g ai/ha) | Plant response rating, Pigweed, Palmer ([15]; 16 g ai/ha) | Plant response rating, Ragweed ([16]; 16 g ai/ha) | Plant response rating, Sandbur ([17]; 16 g ai/ha) | Plant response rating, Sandbur ([17]; 31 g ai/ha) | Plant response rating, Soybean ([18]; 16 g ai/ha) | Plant response rating, Nutsedge, Yellow ([21]; 16 g ai/ha) | Plant response rating, Nutsedge, Yellow ([21]; 31 g ai/ha) | Plant response rating, Nutsedge, Yellow ([21]; 62 g ai/ha)
50: Plant response rating, Surinam Grass ([3]; 125 g ai/ha) | Plant response rating, Goosegrass ([8]; 31 g ai/ha) | Plant response rating, Foxtail, Green ([9]; 31 g ai/ha) | Plant response rating, Kochia ([11]; 31 g ai/ha) | Plant response rating, Crabgrass, Large ([13]; 16 g ai/ha) | Plant response rating, Ragweed ([16]; 31 g ai/ha) | Plant response rating, Ragweed ([16]; 62 g ai/ha) | Plant response rating, Sandbur ([17]; 125 g ai/ha)
40: Plant response rating, Lambsquarters ([12]; 31 g ai/ha)
25: Plant response rating, Soybean ([18]; 31 g ai/ha)
95: Plant response rating, Crabgrass, Large ([13]; 62 g ai/ha)
70: Plant response rating, Ryegrass, Italian ([2]; 125 g ai/ha) | Plant response rating, Foxtail, Green ([9]; 62 g ai/ha) | Plant response rating, Velvetleaf ([19]; 31 g ai/ha)
75: Plant response rating, Panicum, Fall ([6]; 31 g ai/ha) | Plant response rating, Goosegrass ([8]; 62 g ai/ha) | Plant response rating, Kochia ([11]; 62 g ai/ha) | Plant response rating, Crabgrass, Large ([13]; 31 g ai/ha)
90: Plant response rating, Arrowleaf Sida ([4]; 16 g ai/ha) | Plant response rating, Foxtail, Giant ([7]; 31 g ai/ha) | Plant response rating, Nightshade ([14]; 31 g ai/ha) | Plant response rating, Soybean ([18]; 125 g ai/ha)
80: Plant response rating, Nightshade ([14]; 16 g ai/ha) | Plant response rating, Velvetleaf ([19]; 16 g ai/ha) | Plant response rating, Waterhemp ([20]; 31 g ai/ha)
60: Plant response rating, Pigweed, Palmer ([15]; 31 g ai/ha)
20: Plant response rating, Barnyardgrass ([5]; 31 g ai/ha) | Plant response rating, Kochia ([11]; 16 g ai/ha)
5: Plant response rating, Foxtail, Giant ([7]; 16 g ai/ha)
15: Plant response rating, Barnyardgrass ([5]; 16 g ai/ha) | Plant response rating, Foxtail, Green ([9]; 16 g ai/ha) | Plant response rating, Sandbur ([17]; 62 g ai/ha) | Plant response rating, Nutsedge, Yellow ([21]; 125 g ai/ha)
98: Plant response rating, Goosegrass ([8]; 125 g ai/ha) | Plant response rating, Nightshade ([14]; 62 g ai/ha) | Plant response rating, Ragweed ([16]; 125 g ai/ha)
